Experimental data taken from patent US11707530B2, “Ligand capable of multivalently binding to glutamine transporter, and composition comprising same” (TOKYO INSTITUTE OF TECHNOLOGY, priority 2016, dated 2023).

Experiments:
[1] = target: T1, ASCT2 (Homo sapiens, UniProt Q15758); assay: Antibody labeling of Bx-PC3 cells after incubation in Bzl-Ser solution; format: cell-based; parameters: endogenous in cells; host or cells: Bx-PC3 (BxPC-3) pancreatic cancer cells; settings: 50 mM Bzl-Ser
T1 sequence (Q15758 1-541): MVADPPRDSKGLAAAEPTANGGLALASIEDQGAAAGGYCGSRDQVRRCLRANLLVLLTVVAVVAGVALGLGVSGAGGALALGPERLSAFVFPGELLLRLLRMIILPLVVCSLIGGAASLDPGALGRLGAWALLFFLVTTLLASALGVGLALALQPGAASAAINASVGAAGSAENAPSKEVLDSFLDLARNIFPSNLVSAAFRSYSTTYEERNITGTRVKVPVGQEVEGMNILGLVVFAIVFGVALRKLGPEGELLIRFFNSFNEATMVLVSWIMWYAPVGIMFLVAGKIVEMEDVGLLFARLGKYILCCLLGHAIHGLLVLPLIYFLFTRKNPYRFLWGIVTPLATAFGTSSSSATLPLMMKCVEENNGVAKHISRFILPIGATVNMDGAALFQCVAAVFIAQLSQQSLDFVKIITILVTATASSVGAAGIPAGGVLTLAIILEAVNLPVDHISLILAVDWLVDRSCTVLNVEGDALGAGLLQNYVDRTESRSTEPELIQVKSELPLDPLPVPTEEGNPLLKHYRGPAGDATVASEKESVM

[2] = target: T1, ASCT2; settings: background statement; read-out: Km (Michaelis constant, affinity for ASCT2); cited from earlier work

Row | antibody labeling, cells incubated in Bzl-Ser solution vs PBS+10% FBS [1] | SMILES | Km [2]
1 | no difference observed | N[C@@H](COCc1ccccc1)C(=O)O [Bzl-Ser, O-benzyl-L-serine] | –
2 | – | NC(=O)CC[C@H](N)C(=O)O [glutamine, L-glutamine] | 20 µM
